Patent publication US20090117593A1, “T. Cruzi-derived neurotrophic agents and methods of use therefor” (Tufts University, priority 2006, published 2009)
“Also recorded” adds a separate entry of the source.

Key:
Format in all cases: cell-based
PC12^TrkA cells [1] = assay: Neurite extension of PC12^TrkA cells; details: coated substratum or in medium (10 μM), 1% FCS
Protocol: PC12^nnr5 and PC12^TrkA cells were grown in RPMI with 10% FCS and 5% horse serum as described earlier (Green et al., J. Cell Biol. 102:830-843 (1986); Chuenkova and Pereira, Mol. Biol. Cell 11: 1487-1498 (2000)). Two approaches were used to study neurite extension: 1) Plating cells (1×10^5 cells/ml) on plastic wells (LABTECH 16-well slides, Nalge Nunc International, Naperville, Ill.) coated with synthetic peptides (100 μg/ml water, 4° C., overnight) or rat tail collagen (1 mg/ml PBS, 4° C., overnight). 2) Adding peptides in solution to cells plated on uncoated substratum. Cells were grown in 1% FCS-containing RPMI for 72 hours, and reacted with 0.5 mg/ml MTT (3-[4,5-dimethylthiazol-2-yl]-2,5-diphenyltetrazolium bromide) (SIGMA, St. Louis, Mo.) in serum-free medium for 1 hour at 37° C. Light microscopy was used to visualize viable cells (i.e., containing reduced insoluble formazan) with or without extended neurites (>5 μm in length). Cell viability was also determined using the CELLTITER 96 assay (Promega, Madison, Wis.) as follows: Cells, plated at 2×10^5/ml, were treated with peptides in serum-free medium for different times and exposed to CELLTITER 96 Aqueous One Solution for 1 hour at 37° C. […]

Erk1/2 = Erk1/2 phosphorylation in PC12 cells; details: 5 minutes; control peptides 10 μM
Protocol: Activation state of TrkA, Erk1/2 and Akt kinases and transcription factor CREB was analyzed by assessing phosphorylation by Western blot with appropriate phospho-specific antibodies. For this, cells were plated in complete medium at a density of 3×10^5 cells/ml overnight on 6-well plates (BECTON DICKINSON LABWARE, Franklin Lakes, N.J.). The medium was changed to serum-free medium and the cells cultured for an additional 24 hours to reduce background phosphorylation. […] Antibody reaction was visualized by horseradish peroxidase (HRP)-conjugated secondary antibody and enhanced chemiluminescence kit (ECL). Some blots were stripped in appropriate buffer (50 mM Tris HCl, pH 7.8, 2% SDS, 1% β-mercaptoethanol) at 50° C. for 60 minutes and re-probed with p42/44MAPK, Akt or CREB antibody to ensure equal loading of proteins. For immunoprecipitation experiments, cell lysates were pre-adsorbed on protein G-Sepharose for 1 hour at 4° C. and after brief centrifugation supernatants were incubated with anti-TrkA antibody for 24 hours at 4° C. with gentle rocking. Formed immunocomplexes were captured on protein G-Sepharose, eluted with SDS-PAGE sample buffer and analyzed by immunoblotting with antibody against phospho-TrkA receptor.

PC12^TrkA cells [2] = assay: Survival of PC12^TrkA cells in serum-free medium (MTT, DAPI); details: peptides 10 μM, PDNF 500 ng/ml, NGF 30 ng/ml; 48 hours to 5 days
Protocol: PC12^nnr5 and PC12^TrkA cells were grown in RPMI with 10% FCS and 5% horse serum as described earlier (Green et al., J. Cell Biol. 102:830-843 (1986); Chuenkova and Pereira, Mol. Biol. Cell 11: 1487-1498 (2000)). Two approaches were used to study neurite extension: 1) Plating cells (1×10^5 cells/ml) on plastic wells (LABTECH 16-well slides, Nalge Nunc International, Naperville, Ill.) coated with synthetic peptides (100 μg/ml water, 4° C., overnight) or rat tail collagen (1 mg/ml PBS, 4° C., overnight). 2) Adding peptides in solution to cells plated on uncoated substratum. Cells were grown in 1% FCS-containing RPMI for 72 hours, and reacted with 0.5 mg/ml MTT (3-[4,5-dimethylthiazol-2-yl]-2,5-diphenyltetrazolium bromide) (SIGMA, St. Louis, Mo.) in serum-free medium for 1 hour at 37° C. Light microscopy was used to visualize viable cells (i.e., containing reduced insoluble formazan) with or without extended neurites (>5 μm in length). Cell viability was also determined using the CELLTITER 96 assay (Promega, Madison, Wis.) as follows: Cells, plated at 2×10^5/ml, were treated with peptides in serum-free medium for different times and exposed to CELLTITER 96 Aqueous One Solution for 1 hour at 37° C. 2) Apoptotic cells were identified by staining with DAPI (250 ng/ml) (SIGMA) 48 hours after cells were exposed to serum-free medium with or without additives in solution, as described earlier (Chuenkova and Pereira, Mol. Biol. Cell 11:1487-1498 (2000)). […]

PC12 cells = details: serum-free RPMI/0.2% BSA, collagen coated dishes, 16-17 hours
[3] = system: PC12 cells or Schwann cells; assay: Inhibition of apoptosis of PC12 cells or Schwann cells by synthetic peptides
neuroblastoma N18 cells = assay: Neurite outgrowth assay in N18 cells; details: soluble or immobilized on plastic (500 μg/ml coating), 17 hours
Protocol: 96-well microtiter plates were coated overnight at 4° C. with the TS or peptides or fragments thereof, or with control proteins laminin (Ln) or bovine serum albumin (BSA) at 500 μg/ml. After removing the compounds, the plates were further incubated with 1% BSA for 1 hour at room temperature and immediately used as substratum for PC12 or N18 (Prasad, K., Biol. Rev. Camb. Philos. Soc., 66:431-451 (1991)) cells in serum-free RPMI/0.2% BSA. Neurite outgrowth was measured using a phase-contrast microscope 17 hours later.

Row | Substance | neurite extension / differentiation of PC12^TrkA cells (PC12^TrkA cells [1]) | Erk1/2 phosphorylation in PC12 cells (Erk1/2) | survival of PC12^TrkA cells in serum-free medium (PC12^TrkA cells [2]) | neurite outgrowth in PC12 cells (PC12 cells) | suppression of apoptosis of PC12 cells or Schwann cells [3] | neurite outgrowth in N18 cells (neuroblastoma N18 cells)
1 | DSSAHGTPSTPA [peptide TR] | did not spread and extend neurites; also recorded: did not support survival and neurite extension | did not activate Erk | inactive; also recorded: did not significantly promoted cell survival; also recorded: did not support survival and neurite extension | did not induce neurite outgrowth; also recorded: did not promote neurite outgrowth | did not inhibit apoptosis | –
2 | laminin [reference compound] | – | – | – | – | – | induced
